Data on 32 molecules can be found in patent US20160368895A1, “PULMONARY HYPERTENSION TREATING AGENT” (THE UNIVERSITY OF TOKYO, priority 2013, published 2016).

Broadly, the T/C is the result in the treated group divided by that in the control group, in per cent.

T1 sequence (P43119 whole entry): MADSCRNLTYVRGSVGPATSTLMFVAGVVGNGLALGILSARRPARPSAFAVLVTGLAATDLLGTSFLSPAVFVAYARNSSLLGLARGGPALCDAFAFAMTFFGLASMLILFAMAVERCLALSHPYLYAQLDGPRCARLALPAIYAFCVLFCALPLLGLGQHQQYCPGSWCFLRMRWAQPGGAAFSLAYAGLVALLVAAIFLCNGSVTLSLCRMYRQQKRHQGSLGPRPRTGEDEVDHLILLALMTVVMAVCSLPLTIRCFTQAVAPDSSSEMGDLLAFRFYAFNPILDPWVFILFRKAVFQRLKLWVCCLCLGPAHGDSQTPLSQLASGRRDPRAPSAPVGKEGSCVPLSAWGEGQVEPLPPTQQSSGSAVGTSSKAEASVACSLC

The first assay addresses T1, human PGI2 receptors (hIP) (Homo sapiens, UniProt P43119).
T1 construct: expressed in transfected cells; host or cells: CHO-K1
The experiment in a line: Method A: positive allosteric modulator activity, cAMP in CHO/hIP cells with 100 pM iloprost. In kind it is cell-based. The settings on record: cAMP relative to 100 pM iloprost alone, test compound 10 uM. As to the method: The positive allosteric modulator activity of a test compound was measured as a change in the amount of intracellular cyclic AMP (cAMP) in the presence of 100 pM of the IP agonist iloprost (manufactured by CAYMAN CHEMICAL), using CHO-K1 cells (CHO/hIP cells) in which human PGI2 receptors (hIP) are stably expressed.
(§1) An amount of 5 μL of a mixture (diluted in F-12 culture medium (manufactured by GIBCO) including 0.1% BSA) of iloprost dissolved in DMSO and a test compound dissolved in DMSO was dispensed in advance into a 384-well black microplate, and 5 μL of CHO/hIP cells suspended at a concentration of 1.6×10^6 cells/mL in F-12 culture medium including 0.1% BSA were added to the microplate. After 40 minutes of incubation at room temperature, the amount of cAMP was measured using a cAMP assay kit (cAMP HiRange, manufactured by Cisbio Bioassays). Specifically, 5 μL of a cAMP-d2 solution (including a cell lysate) from the kit were added and the reaction was stopped, then 5 μL of a fluorescence-labeled cAMP antibody solution from the kit was added and incubation was performed for 1 hour at room temperature, after which fluorescence was measured using a PHERAstar plate reader (manufactured by BMG) in HTRF (registered trademark) mode. The amount of cAMP in each well was calculated from a cAMP calibration curve obtained using a standard sample, and the activity of each test compound is noted below as a ratio T/C (%) based on the amount of cAMP for 100 pM of isoprost alone. All of the compounds included in this table were purchased from Asinex Corporation.
Turning to `CCC(C)(C)n1nnnc1C(c1ccc(OC)c(OC)c1)N1CCc2ccccc2C1` (centres unmarked), the T/C % was determined as 103%. On the same count and under the same terms, the figure for `Fc1ccc(C(c2nnnn2C2CCCC2)N2CCc3ccccc3C2)cc1` (centres unmarked) is 108%.

The next assay has as its target T1, human PGI2 receptors (hIP). The experiment in a line: Method B: positive allosteric modulator activity, cAMP in CHO/hIP cells with 1 nM epoprostenol. In kind it is cell-based. The settings on record: cAMP relative to 1 nM epoprostenol alone, test concentration 5 uM. The method, then:
The positive allosteric modulator activity of a test compound was measured as a change in the amount of intracellular cyclic AMP (cAMP) in the presence of 1 nM of the IP agonist epoprostenol (manufactured by GlaxoSmithKline), using CHO-K1 cells (CHO/hIP cells) in which human PGI2 receptors (hIP) are stably expressed.
as §1, with “of epoprostenol” for “of iloprost”, “of 1.4×10^6” for “of 1.6×10^6”, “kit were” for “kit was”, “for 1 nM” for “for 100 pM”, “of epoprostenol” for “of isoprost”, “alone.” for “alone. All of the compounds included in this table were purchased from Asinex Corporation.”
The molecule `Cc1ccccc1C(c1nnnn1C(C)(C)C)N1CCc2ccc(Cl)cc2C1` (centres unmarked) [Example 19] displayed a T/C of 90%. The molecule `CC(C)(C)n1nnnc1C(c1ccccc1Br)N1CCc2ccc(Cl)cc2C1` (centres unmarked) [Example 17] gave a T/C of 87%. On the same count and under the same terms, the figure for `CC1(n2nnnc2C(c2ccccc2)N2CCc3ccccc3C2)CCCCC1` (centres unmarked) [Example 41] is 116.3%.

The assay is the same for the next values; noted with them: cAMP relative to 1 nM epoprostenol alone, test concentration 10 uM.
For `CC(C)(C)n1nncc1C(c1ccc(C(F)(F)F)cc1)N1CCc2ccccc2C1` (centres unmarked) [Example 6], the T/C is on record as 93.7%. Same read-out and setting: the figure for `CC(C)(C)n1nnnc1C(c1ccccc1N=O)N1CCc2ccc(Cl)cc2C1` (centres unmarked) [Example 18] is 94.1%. On the same count and under the same terms, the figure for `CC(C)(C)n1nnnc1C(c1cc2ccccc2o1)N1CCc2ccccc2C1` (centres unmarked) [Example 50] is 105.0%; for `COc1ccccc1C(C)(c1nnnn1C(C)(C)C)N1CCc2ccccc2C1` (centres unmarked) [Example 48] it is 72.3%. On the same count and under the same terms, the figure for `CC(C)(C)n1nnnc1C(c1cc2ccccc2[nH]1)N1CCc2ccccc2C1` (centres unmarked) [Example 40] is 89.3%; for `Cc1ccccc1C(c1nnnn1C(C)(C)C)N1CCc2ccccc2C1` (centres unmarked) [Example 11] it is 95%.

Another assay deals with T1, human PGI2 receptors (hIP). Briefly: Method C: effect on epoprostenol-cAMP production curve in CHO/hIP cells (left shift value). The class given is cell-based. As to conditions: Table 4, concentration of test compound that halves the EC50 of epoprostenol. The method, then:
The effect of a test compound on the cAMP production curve with respect to the IP agonist epoprostenol (manufactured by GlaxoSmithKline) was investigated using CHO-K1 cells (CHO/hIP cells) in which human PGI2 receptors (hIP) are stably expressed.
An amount of 5 μL of a mixture (diluted in F-12 culture medium (manufactured by GIBCO) including 0.1% BSA) of epoprostenol dissolved in DMSO and a test compound dissolved in DMSO was dispensed in advance into a 384-well black microplate, and 5 μL of CHO/hIP cells suspended at a concentration of 1.4×10^6 cells/mL in F-12 culture medium including 0.1% BSA were added to the microplate. After 40 minutes of incubation at room temperature, the amount of cAMP was measured using a cAMP assay kit (cAMP HiRange, manufactured by Cisbio Bioassays). Specifically, 5 μL of a cAMP-d2 solution (including a cell lysate) from the kit were added and the reaction was stopped, then 5 μL of a fluorescence-labeled cAMP antibody solution from the kit were added and incubation was performed for 1 hour at room temperature, after which fluorescence was measured using a PHERAstar plate reader (manufactured by BMG) in HTRF (registered trademark) mode. The amount of cAMP in each well was calculated from a cAMP calibration curve obtained using a standard sample, and an epoprostenol-cAMP production curve for the presence of various concentrations of the test compound was created.
`CCCOc1ccccc1C(c1nnnn1C(C)(C)C)N1CCc2ccccc2C1` (centres unmarked) [Example 52]: the left shift value was determined as 4.3 µM. As to `CC(C)(C)n1nnnc1C(c1ccccc1Cl)N1CCc2ccccc2C1` (centres unmarked) [Example 53], the left shift value is 7.2 µM. Same read-out and setting: the figure for `Cc1ccccc1C(c1nnnn1C(C)(C)C)N1CCc2ccccc2C1` (centres unmarked) [Example 55] is 35 µM.

The same assay, now with this note: Table 5, concentration of test compound that halves the EC50 of epoprostenol.
In the case of `CC(C)(C)n1nnnc1C(c1ccsc1)N1CCc2sccc2C1` (centres unmarked) [Example 68, 5-((1-(tert-butyl)-1H-tetrazol-5-yl)(thiophen-3-yl)methyl)-4,5,6,7-tetrahydrothieno[3,2-c]pyridine], the left shift value is 15.5 µM. Still for that read-out and setting: the figure for `CSc1ccccc1C(c1nnnn1C(C)(C)C)N1CCc2sccc2C1` (centres unmarked) [Example 70, 5-((1-(tert-butyl)-1H-tetrazol-5-yl)(2-(methylthio)phenyl)methyl)-4,5,6,7-tetrahydrothieno[3,2-c]pyridine] is 14.8 µM; for `CC(C)(C)n1nnnc1C(c1ccccc1Br)N1CCc2sccc2C1` (centres unmarked) [Example 65, 5-((2-bromophenyl)(1-(tert-butyl)-1H-tetrazol-5-yl)methyl)-4,5,6,7-tetrahydrothieno[3,2-c]pyridine] it is 66.2 µM; for `CC(C)(C)n1nnnc1C(c1ccccc1F)N1CCc2sccc2C1` (centres unmarked) [Example 69, 5-((1-(tert-butyl)-1H-tetrazol-5-yl)(2-fluorophenyl)methyl)-4,5,6,7-tetrahydrothieno[3,2-c]pyridine] it is 20.6 µM. Still for that read-out and setting: the figure for `COc1ccc(C(c2nnnn2C(C)(C)C)N2CCc3sccc3C2)cc1` (centres unmarked) [Example 63, 5-((1-(tert-butyl)-1H-tetrazol-5-yl)(4-methoxyphenyl)methyl)-4,5,6,7-tetrahydrothieno[3,2-c]pyridine] is 34.9 µM. Same read-out and setting: the figure for `COc1ccsc1C(c1nnnn1C(C)(C)C)N1CCc2sccc2C1` (centres unmarked) [Example 72, 5-((1-(tert-butyl)-1H-tetrazol-5-yl)(3-methoxythiophen-2-yl)methyl)-4,5,6,7-tetrahydrothieno[3,2-c]pyridine] is 3.2 µM; for `CC(C)(C)n1nnnc1C(c1cccs1)N1CCc2sccc2C1` (centres unmarked) [Example 62, 5-((1-(tert-butyl)-1H-tetrazol-5-yl)(thiophen-2-yl)methyl)-4,5,6,7-tetrahydrothieno[3,2-c]pyridine] it is 12.2 µM.

Turning to `CC1(n2nnnc2C(c2ccccc2O)N2CCc3ccccc3C2)CCCCC1` (centres unmarked) [Example 71, 2-((3,4-dihydroisoquinolin-2(1H)-yl)-(1-(1-methylcyclohexyl)-1H-tetrazol-5-yl)methyl)phenol], the left shift value is 2.3 µM. Still for that read-out and setting: the figure for `CC(C)(C)n1nnnc1C(c1nccs1)N1CCc2ccccc2C1` (centres unmarked) [Example 73, 2-((1-(tert-butyl)-1H-tetrazol-5-yl)(3,4-dihydroisoquinolin-2(1H)-yl)methyl)thiazole] is 44.6 µM; for `CC(C)(C)n1nnnc1C(c1ccccc1)N1CCc2sccc2C1` (centres unmarked) [Example 59, 5-((1-(tert-butyl)-1H-tetrazol-5-yl)(phenyl)methyl)-4,5,6,7-tetrahydrothieno[3,2-c]pyridine] it is 16.1 µM; for `CC(C)(C)n1nnnc1C(c1ccc[nH]1)N1CCc2sccc2C1` (centres unmarked) [Example 66, 5-((1-(tert-butyl)-1H-tetrazol-5-yl)(1H-pyrrol-2-yl)methyl)-4,5,6,7-tetrahydrothieno[3,2-c]pyridine] it is 84.5 µM. In the case of `CC1(n2nnnc2C(c2cccc(F)c2O)N2CCc3ccccc3C2)CCCCC1` (centres unmarked) [Example 83], the left shift value was determined as 25.0 µM. Still for that read-out and setting: the figure for `COc1ccsc1C(c1nnnn1C1(C)CCCCC1)N1CCc2sccc2C1` (centres unmarked) [Example 75, 5-((3-methoxythiophen-2-yl)(1-(1-methylcyclohexyl)-1H-tetrazol-5-yl)methyl)-4,5,6,7-tetrahydrothieno[3,2-c]pyridine] is 2.1 µM; for `COc1c(F)cccc1C(c1nnnn1C(C)(C)C)N1CCc2ccccc2C1` (centres unmarked) [Example 80, 2-((1-(tert-butyl)-1H-tetrazol-5-yl)(3-fluoro-2-methoxyphenyl)methyl)-1,2,3,4-tetrahydroisoquinoline] it is 26.5 µM. Still for that read-out and setting: the figure for `COc1ccccc1C(c1nnnn1C(C)(C)C)N1CCC2CCCCC2C1` (centres unmarked) [Example 82, 2-((1-(tert-butyl)-1H-tetrazol-5-yl)(2-methoxyphenyl)methyl)deca-hydroisoquinoline] is 6.2 µM; for `CC1(n2nnnc2C(c2cccs2)N2CCc3sccc3C2)CCCCC1` (centres unmarked) [Example 74, 5-((1-(1-methylcyclohexyl)-1H-tetrazol-5-yl)(thiophen-2-yl)methyl)-4,5,6,7-tetrahydrothieno[3,2-c]pyridine] it is 8.6 µM; for `COc1ccccc1C(c1nnnn1C(C)(C)C)N1CCc2sccc2C1` (centres unmarked) [Example 60, 5-((1-(tert-butyl)-1H-tetrazol-5-yl)(2-methoxyphenyl)methyl)-4,5,6,7-tetrahydrothieno[3,2-c]pyridine] it is 10.5 µM. Still for that read-out and setting: the figure for `COc1ccccc1C(c1nnnn1C1(C)CCCCC1)N1CCc2sccc2C1` (centres unmarked) [Example 76, 5-((2-methoxyphenyl)(1-(1-methylcyclohexyl)-1H-tetrazol-5-yl)methyl)-4,5,6,7-tetrahydrothieno[3,2-c]pyridine] is 7.2 µM.
